Laboratory results published in US5843696A, “Bioassay for toxic substances activated by metabolic enzyme system” (priority 1995, dated 1998).

Assays:
[1] = test system: ATP-driven reduction of NAD+ to NADH by submitochondrial particles; assay: RET (reverse electron transfer) test linked to cytochrome P-450 liver microsome activation
Excerpt: The effect of this is to drive an endergonic reduction of NAD^+ to NADH as long as there is sufficient presence of ATP. For the process to be effective, therefore, there must be a sufficient quantity of NAD^+ in the sample preparation to serve as a substrate for conversion by competent enzymes. It may also be required that other enzymes such as glutamate, or alcohol or pyruvate dehydrogenases be added from exogenous sources in the event these materials are lost by rupture of the intact mitochondria during particle preparation.
For a reverse electron transport assay in which NAD^+ is to be reduced to NADH, one obvious requirement of the assay medium is NAD^+ to be a substrate. To supply a source of electrons, succinate is a preferred substrate which can be oxidized by the complex II enzymes. In order to couple the donor electrons from succinate conversion to NAD^+ reduction, it is necessary to block transport of the electron flow through complex III enzymes. This can be easily accomplished by adding antimycin, a known inhibitor of the complex III enzymes. With this combination, if the mitochondrial membranes and enzymes are otherwise functional, electrons would flow from coenzyme Q back through complex I enzymes to NAD^+. Thus NAD^+ would be reduced to NADH, as long as ATP was present to energize the conversion. Thus, the initiation of the reaction can be controlled by the timing of ATP addition.

[2] = test system: NADH oxidase activity of submitochondrial particles (enzyme complexes I, III, and IV); assay: ETr (electron transfer) test linked to cytochrome P-450 liver microsome activation; details: all tested concentrations; bovine serum albumin instead of microsomes
NADH oxidation by SMP = assay type: biochemical, beef; details: at the tested concentrations; no cytochrome P-450 enzymes

c1ccc2cc3ccccc3cc2c1 [anthracene]
inhibition in RET test, secondary controls lacking liver microsomes ([1]; 1 ppm, no liver microsomes): no inhibition

Brc1ccccc1 [bromobenzine]
inhibition relative to controls lacking the test compound ([1]; 69 ppm, microsomes from phenobarbital-induced rats): 68%
inhibition in controls containing the test compound but lacking microsomes ([1]; 69 ppm, no microsomes): 22%

ClC(Cl)(Cl)Cl [carbon tetrachloride]
inhibition of NADH oxidase activity, secondary control lacking liver microsomes [2]: 4%
inhibition in conventional ETr protocol (NADH oxidation by SMP): no inhibition
